Test results published in PubChem BioAssay AID1033 (Sanford-Burnham Center for Chemical Genomics, 2008).
Active and inactive are the calls of the source. The rule behind the calls is not given here.

Target: Chaperone protein DnaK (Escherichia coli (strain K12)) (UniProt P0A6Y8)
Assay: E. coli DnaK SBD ligand binding – biophysical, NMR, chaperone (AID 1033)
Settings: Purified DnaK SBD

Sequence of Chaperone protein DnaK (Escherichia coli (strain K12)) (P0A6Y8 whole entry, looked up): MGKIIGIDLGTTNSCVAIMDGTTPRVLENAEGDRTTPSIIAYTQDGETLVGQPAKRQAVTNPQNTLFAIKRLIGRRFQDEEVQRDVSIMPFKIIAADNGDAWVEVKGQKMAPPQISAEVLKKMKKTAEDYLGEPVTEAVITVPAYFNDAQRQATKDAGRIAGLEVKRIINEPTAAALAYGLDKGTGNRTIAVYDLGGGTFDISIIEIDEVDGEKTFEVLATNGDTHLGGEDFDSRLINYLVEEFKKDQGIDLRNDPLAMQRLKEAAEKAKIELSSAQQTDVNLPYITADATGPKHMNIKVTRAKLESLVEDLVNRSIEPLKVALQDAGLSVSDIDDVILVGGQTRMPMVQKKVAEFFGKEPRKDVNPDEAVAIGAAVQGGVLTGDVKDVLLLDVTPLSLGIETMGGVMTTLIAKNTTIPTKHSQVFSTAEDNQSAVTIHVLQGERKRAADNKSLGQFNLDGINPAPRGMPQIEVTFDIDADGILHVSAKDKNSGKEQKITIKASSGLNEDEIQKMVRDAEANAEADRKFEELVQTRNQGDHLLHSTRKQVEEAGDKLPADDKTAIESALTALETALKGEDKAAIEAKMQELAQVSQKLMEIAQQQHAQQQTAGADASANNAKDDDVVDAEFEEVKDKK

For `O=C1NCC(=O)N2CCc3ccccc3C12` (stereo unspecified), the Kd was > 4 mM (inactive).
For `O=C1C2CCCCC2C(=O)N1Cc1cccnc1` (stereo unspecified), the Kd was > 4 mM (inactive).
For `NC(=O)c1ccc(-c2ccccn2)s1`, the Kd was > 4 mM (inactive).
For `CN1CN/C(=N\[N+](=O)[O-])N(c2ccccc2)C1`, the Kd was > 4 mM (inactive).
With `O=c1[nH]cc(S(=O)(=O)Nc2ccccc2)c(=O)[nH]1` the Kd was > 4 mM (inactive).
`O=C(O)C1CNc2ccccc2O1` (stereo unspecified) was tested, and the Kd was > 4 mM (inactive).
With `O=C(O)C1=CCCNC1` the Kd was > 4 mM (inactive).
`NC1=NC(=O)C(Cc2ccccc2)S1` (stereo unspecified) was tested, and the Kd was > 4 mM (inactive).
With `O=C(COc1ccccc1Cl)N1CCCC1` the Kd was > 4 mM (inactive).
In the case of `COc1ccc(-c2oc3c(CC=C(C)C)c(O[C@@H]4O[C@H](CO)[C@@H](O)[C@H](O)[C@H]4O)cc(O)c3c(=O)c2O[C@@H]2O[C@@H](C)[C@H](O)[C@@H](O)[C@H]2O)cc1`, the Kd is reported as > 4 mM (inactive).
With `O=C(O[C@@H]1Cc2c(O)cc(O)cc2O[C@@H]1c1cc(O)c(O)c(O)c1-c1c([C@H]2Oc3cc(O)cc(O)c3C[C@H]2O)cc(O)c(O)c1O)c1cc(O)c(O)c(O)c1` the Kd was > 4 mM (inactive).
With `CC1=[N+]([O-])C2(N)CCc3c(no[n+]3[O-])C2(O)C1` (stereo unspecified) the Kd was > 4 mM (inactive).
`Cc1nc2ccccc2c(=O)n1NC(=O)Nc1ccccc1` was tested, and the Kd was > 4 mM (inactive).
For `Clc1ccc2c(N3CCNCC3)ccnc2c1`, the Kd was > 4 mM (inactive).
For `NC(=O)c1cccc(N2C(=O)C=CC2=O)c1`, the Kd was > 4 mM (inactive).
`CC(=O)O[C@H]1CC[C@@]2(C)C(C[C@@H](OC(C)=O)[C@@]3(C)C4=CC(=O)O[C@@H](c5ccoc5)[C@]4(C)CCC23)C1(C)C` (stereo partly specified) was tested, and the Kd was > 4 mM (inactive).
In the case of `CC(=O)c1cc(-c2nc3ccccc3n2C)n(C)c1`, the Kd is reported as > 4 mM (inactive).
For `Cc1ccccc1NS(=O)(=O)c1ccc(F)cc1`, the Kd was 0.2 mM.
In the case of `COc1c2c(cc3occ(-c4ccc5c(c4)OCO5)c(=O)c13)OC(C)(C)C=C2`, the Kd is reported as > 4 mM (inactive).
For `Cc1nn(CC(=O)Nc2ccccn2)c(=O)c2ccccc12`, the Kd was > 4 mM (inactive).
In the case of `O=C1CC2OCC=C3CN4CC[C@]56c7ccccc7N1C5[C@H]2[C@H]3CC46` (stereo partly specified), the Kd is reported as > 4 mM (inactive).
For `CC1(C)C2CC(=O)[C@]3(C)C(CC[C@@]4(C)[C@H](c5ccoc5)OC(=O)[C@H]5O[C@]543)[C@@]2(C)C=C[C@@H]1O` (stereo partly specified), the Kd was > 4 mM (inactive).
For `O=C(c1ccc(N2CCNCC2)cc1)c1cccnc1`, the Kd was > 4 mM (inactive).
`O=C(OCc1c(F)cccc1Cl)c1cnccn1` was tested, and the Kd was > 4 mM (inactive).
For `Cc1ccc(CNc2ccc(O)cc2)cc1`, the Kd was > 4 mM (inactive).
For `CC12CNCC(C)(CNC1)C2O` (stereo unspecified), the Kd was > 4 mM (inactive).
For `COc1ccc(S(=O)(=O)N2CCC(C(N)=O)CC2)cc1`, the Kd was > 4 mM (inactive).
With `O=C(Nc1c[nH]c(=O)[nH]c1=O)c1cccs1` the Kd was > 4 mM (inactive).
In the case of `Cc1cc(-c2ccc(Cl)cc2)n2nc(N)nc2n1`, the Kd is reported as > 4 mM (inactive).
`Cc1csc(CCc2nc(C)cs2)n1` was tested, and the Kd was > 4 mM (inactive).
`Cc1cc(CN2C(=O)c3ccccc3C2=O)on1` was tested, and the Kd was > 4 mM (inactive).
With `COc1ccc(NC(=O)c2ccc[n+]([O-])c2)cc1` the Kd was > 4 mM (inactive).
`O=C(c1cc2ccccc2o1)N1CCCCCC1` was tested, and the Kd was > 4 mM (inactive).
With `Cc1cc(C(=O)Nc2nnc(C(F)(F)F)s2)no1` the Kd was > 4 mM (inactive).
In the case of `O=C(Nc1ccc(N2CCOCC2)cc1)C1CC1`, the Kd is reported as > 4 mM (inactive).
For `NC(=O)CN1CCC(c2nc3ccccc3[nH]2)CC1`, the Kd was > 4 mM (inactive).
For `O=C(NCc1cccc(Cl)c1)c1cccnc1`, the Kd was > 4 mM (inactive).
With `Cc1cc(C)n2nc(-c3cccnc3)nc2n1` the Kd was > 4 mM (inactive).
In the case of `Cc1cc2cc(N)ccc2[nH]1`, the Kd is reported as > 4 mM (inactive).
In the case of `O=C(Nc1ccncc1)c1cncc(Br)c1`, the Kd is reported as > 4 mM (inactive).
For `CCN1CC2(C)CC[C@H](OC)[C@]34C2[C@H](O)C2(OCO[C@@]25C[C@H](OC)[C@H]2C[C@]3(O)C5[C@H]2O)C14`, the Kd was > 4 mM (inactive).
With `CC(=O)Nc1ccccc1-c1ccccc1NC(C)=O` the Kd was > 4 mM (inactive).
In the case of `Cc1nc(-c2ccccc2)sc1C(N)=O`, the Kd is reported as > 4 mM (inactive).
In the case of `c1ccc(-n2nnnc2-n2cnc3ccccc32)cc1`, the Kd is reported as > 4 mM (inactive).
In the case of `COc1ccc(S(=O)(=O)Nc2ccccn2)c(C)c1C`, the Kd is reported as > 4 mM (inactive).
For `NC(=O)CSCc1ccc(Br)cc1`, the Kd was > 4 mM (inactive).
With `O=C(Oc1ccc(-c2nnco2)cc1)N1CCOCC1` the Kd was > 4 mM (inactive).
With `Cn1ccnc1SCc1cc(=O)[nH]c2ccccc12` the Kd was > 4 mM (inactive).
With `Cc1occc1C(=O)Nc1nnc(C(F)(F)F)s1` the Kd was > 4 mM (inactive).
With `CC(C)(C(N)=O)/[N+]([O-])=C\c1ccccc1` the Kd was > 4 mM (inactive).
`C=CCc1cc(C(=O)N2CCCCC2)ccc1O` was tested, and the Kd was > 4 mM (inactive).
In the case of `CNC(=O)c1cccc(NC(=S)NC)c1`, the Kd is reported as > 4 mM (inactive).
`O=C(CN1CCOCC1)Nc1nccs1` was tested, and the Kd was > 4 mM (inactive).
In the case of `COc1cccc2onc(N)c12`, the Kd is reported as > 4 mM (inactive).
For `CNc1nnc(CSc2nc(C)cc(C)n2)s1`, the Kd was > 4 mM (inactive).
With `CC(=O)O[C@@H]1CC2C(C)(C)C(=O)C=C[C@]2(C)C2CC[C@@]3(C)[C@H](c4ccoc4)OC(=O)[C@H]4O[C@]43[C@@]21C` (stereo partly specified) the Kd was > 4 mM (inactive).
In the case of `Nc1ccccc1N=C1CNC(=O)C1`, the Kd is reported as > 4 mM (inactive).
With `C=CC(C1=CC(=O)C(OC)=CC1=O)c1ccc(O)cc1` (stereo unspecified) the Kd was > 4 mM (inactive).
In the case of `COC(=O)C1=C(C)N(Cc2ccco2)C(=O)C1`, the Kd is reported as > 4 mM (inactive).
In the case of `Cc1ccc(C(=O)N2CCC(C(=O)O)CC2)cc1`, the Kd is reported as > 4 mM (inactive).
`O=C(O)c1csc(-c2cccnc2)n1` was tested, and the Kd was > 4 mM (inactive).
With `CC(C)C(C)/C=C/C(C)[C@H]1CCC2C3=CCC4CC(=O)CC[C@]4(C)C3CC[C@@]21C` (stereo partly specified) the Kd was > 4 mM (inactive).
In the case of `c1ccc(CCN2CCN(CCc3ccccn3)CC2)nc1`, the Kd is reported as > 4 mM (inactive).
For `Cc1ccc(/C=C2/C(=O)N=C(N)N2C)s1`, the Kd was > 4 mM (inactive).
`Cn1c(SCc2ccon2)nc2ccccc2c1=O` was tested, and the Kd was > 4 mM (inactive).
`O=P1(O)c2ccccc2Nc2ccccc21` was tested, and the Kd was > 4 mM (inactive).
`NCCCCN` was tested, and the Kd was > 4 mM (inactive).
For `O=C(OC[C@H]1O[C@H](OC(=O)c2cc(O)c(O)c(OC(=O)c3cc(O)c(O)c(O)c3)c2)[C@H](OC(=O)c2cc(O)c(O)c(OC(=O)c3cc(O)c(O)c(O)c3)c2)[C@@H](OC(=O)c2cc(O)c(O)c(OC(=O)c3cc(O)c(O)c(O)c3)c2)[C@@H]1OC(=O)c1cc(O)c(O)c(OC(=O)c2cc(O)c(O)c(O)c2)c1)c1cc(O)c(O)c(OC(=O)c2cc(O)c(O)c(O)c2)c1`, the Kd was > 4 mM (inactive).
With `[O-][n+]1cc(O)c(CN2CCOCC2)c2ccccc21` the Kd was > 4 mM (inactive).
`Nc1ccc2c(C(F)(F)F)cc(=O)oc2c1` was tested, and the Kd was > 4 mM (inactive).
In the case of `Nc1cccc(-n2cnnn2)c1`, the Kd is reported as > 4 mM (inactive).
In the case of `Cc1cc(-c2ccccc2)nc2cc(C(N)=O)nn12`, the Kd is reported as > 4 mM (inactive).
`Fc1ccc(NC2=NCCS2)cc1Cl` was tested, and the Kd was > 4 mM (inactive).
With `COc1cccc(O)c1O` the Kd was > 4 mM (inactive).
With `O=C(CCc1n[nH]c(=O)[nH]c1=O)NCc1ccccc1` the Kd was > 4 mM (inactive).
In the case of `O=[N+]([O-])c1cccc(-c2c[n+](=O)c3c(n2[O-])CCC3)c1`, the Kd is reported as > 4 mM (inactive).
In the case of `COc1ccc2c3c1O[C@H]1C[C@@H](O)C=C[C@@]31CCN(C)C2`, the Kd is reported as > 4 mM (inactive).
For `FC(F)(F)c1nnc2ccc(N3CCOCC3)nn12`, the Kd was > 4 mM (inactive).
In the case of `c1ccc(-c2nnc(CNCc3ccco3)o2)cc1`, the Kd is reported as > 4 mM (inactive).
`CC(C)(O)CC[C@@H](O)[C@](C)(O)C1CC[C@@]2(O)C3=CC(=O)C4C[C@@H](O)[C@@H](O)C[C@]4(C)C3CC[C@]12C` (stereo partly specified) was tested, and the Kd was > 4 mM (inactive).
`Cn1cnc2c(cnn2-c2ccccc2)c1=O` was tested, and the Kd was > 4 mM (inactive).
With `O=C(c1ccccc1-c1ccccc1)N1CCOCC1` the Kd was > 4 mM (inactive).
`COC(=O)CSc1ncnc2c(C)csc12` was tested, and the Kd was > 4 mM (inactive).
`COc1ccc(-c2coc3cc(O)ccc3c2=O)c(OC)c1` was tested, and the Kd was > 4 mM (inactive).
`CC(=O)Oc1ccc2c(c1)c(C(C)=O)c(C)n2C` was tested, and the Kd was > 4 mM (inactive).
`OCc1c[nH]c2ccccc12` was tested, and the Kd was > 4 mM (inactive).
For `O=C(Nc1cccnc1)c1cccs1`, the Kd was > 4 mM (inactive).
In the case of `Cc1cc(C)nc(N(C#N)Cc2ccccc2)n1`, the Kd is reported as > 4 mM (inactive).
For `C=C1CCC2[C@](C)(CO)[C@H](O)CC[C@@]2(C)[C@@H]1C/C=C1/C(=O)OC[C@H]1O` (stereo partly specified), the Kd was > 4 mM (inactive).
With `C[C@H]1[C@H]2CCC3C4CC=C5C[C@@H](N(C)C)CC[C@]5(C)C4CC[C@@]32CN1C` (stereo partly specified) the Kd was > 4 mM (inactive).
For `O=C(O)c1scc2c1CCCC2`, the Kd was > 4 mM (inactive).
With `Nc1ccc2[nH]ccc2c1` the Kd was > 4 mM (inactive).
`CCNCC(O)c1ccc([N+](=O)[O-])cc1` (stereo unspecified) was tested, and the Kd was > 4 mM (inactive).
With `O=C(Nc1ccon1)c1csc2c1CCCC2` the Kd was > 4 mM (inactive).
In the case of `CCOC(=O)c1c(C)nc2c(C#N)cnn2c1C`, the Kd is reported as > 4 mM (inactive).
For `Cc1sc2nc(SCC(=O)N(C)C)[nH]c(=O)c2c1C`, the Kd was > 4 mM (inactive).
For `NCC(=O)c1ccccc1`, the Kd was > 4 mM (inactive).
With `COc1c2c(cc3c1OCO3)C13C=C[C@H](OC)CC1N(C2)CC3O` (stereo partly specified) the Kd was > 4 mM (inactive).
With `O=C(NCc1cccc2ccsc12)c1cccs1` the Kd was < 0.2 mM.
`Nc1ccc2nccnc2c1` was tested, and the Kd was > 4 mM (inactive).
For `CCOC(=O)c1cc(C)n(-n2cnnc2)c1C`, the Kd was > 4 mM (inactive).
`CCOC(=O)Cc1nc2ccccc2[nH]1` was tested, and the Kd was > 4 mM (inactive).
In the case of `O=C(O)c1cc(F)cc2c1OCOC2`, the Kd is reported as > 4 mM (inactive).
In the case of `CN1CCC(NC(=O)Cc2c(F)cccc2Cl)CC1`, the Kd is reported as > 4 mM (inactive).
`O=C(Nc1ccc2ccccc2c1)c1cnccn1` was tested, and the Kd was > 4 mM (inactive).
In the case of `O=C(O)c1coc2c1C(=O)CCC2`, the Kd is reported as > 4 mM (inactive).
In the case of `OC1CC2CCC1C2` (stereo unspecified), the Kd is reported as > 4 mM (inactive).
For `O=C(Nc1ncccn1)c1cccc(F)c1`, the Kd was > 4 mM (inactive).
`CCCCCCCCCCCCCCC(C(=O)OC)C(O)(CC(=O)OC)C(=O)OC` (stereo unspecified) was tested, and the Kd was > 4 mM (inactive).
In the case of `Cc1cccc(NC(=O)CN2C(=O)CNC2=O)c1`, the Kd is reported as > 4 mM (inactive).
`CC(=O)NS(=O)(=O)c1ccc(C)cc1` was tested, and the Kd was > 4 mM (inactive).
